{"source": "paper PMC13095408", "about": "“DBeQ derivative targets vacuolar protein sorting 4 functions in cancer cells and suppresses tumor growth in mice” (The Journal of Pharmacology and Experimental Therapeutics, 2025)", "key": {"recombinant human VCP [1]": {"target": "T1, recombinant human VCP (Rattus norvegicus, UniProt P46462)", "T1 construct": "His (N); host or cells: Escherichia coli BL21(DE3)", "T1 sequence (P46462 2-806 limits assumed)": "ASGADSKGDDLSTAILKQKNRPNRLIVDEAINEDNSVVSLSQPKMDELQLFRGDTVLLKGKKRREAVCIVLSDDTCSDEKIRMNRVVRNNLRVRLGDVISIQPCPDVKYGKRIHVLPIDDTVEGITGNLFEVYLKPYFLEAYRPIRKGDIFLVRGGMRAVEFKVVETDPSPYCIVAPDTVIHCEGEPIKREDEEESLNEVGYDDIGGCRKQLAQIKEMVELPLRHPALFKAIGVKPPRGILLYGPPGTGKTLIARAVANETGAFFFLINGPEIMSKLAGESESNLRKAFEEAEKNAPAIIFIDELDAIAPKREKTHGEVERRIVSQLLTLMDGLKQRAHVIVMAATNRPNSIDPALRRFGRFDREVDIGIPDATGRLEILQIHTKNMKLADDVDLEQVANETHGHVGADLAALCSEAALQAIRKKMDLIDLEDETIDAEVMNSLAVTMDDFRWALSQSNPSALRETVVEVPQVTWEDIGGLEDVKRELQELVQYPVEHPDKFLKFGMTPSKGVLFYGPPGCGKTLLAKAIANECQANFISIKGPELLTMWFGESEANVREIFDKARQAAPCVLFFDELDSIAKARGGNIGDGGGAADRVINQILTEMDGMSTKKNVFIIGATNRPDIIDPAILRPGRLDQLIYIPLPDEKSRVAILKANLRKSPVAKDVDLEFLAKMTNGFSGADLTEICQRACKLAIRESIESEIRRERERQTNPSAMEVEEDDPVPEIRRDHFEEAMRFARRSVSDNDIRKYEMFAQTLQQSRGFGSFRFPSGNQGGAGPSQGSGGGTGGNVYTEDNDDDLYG", "assay": "VCP ATPase activity, EnzChek Phosphate assay", "assay_type": "biochemical", "experimental": "(§1) VPS4B and VCP ATPase activities were measured using the EnzChek Phosphate assay for the quantification of released phosphate. Assay buffers were based on literature precedents ([Cupido et al, 2019], [2021]) as follows: VPS4B buffer (20 mM HEPES-KOH, pH 7.4, 25 mM KOAc, 2 mM MgCl2, 5 mM (NH4)2SO4, 0.5 mM CaCl2, 2.5 mM DTT, 0.1 mg/mL BSA, 0.005% v/v Triton X-100), VCP buffer (20 mM HEPES-NaOH, pH 7.4, 20 mM NaCl, 10 mM MgCl2, 5 mM (NH4)2SO4, 0.5 mM CaCl2, 2.5 mM DTT, 0.1 mg/mL BSA, 0.005% v/v Triton X-100). In black clear-bottom 384-well plates, 22.5 μL of 5% DMSO or 40× test compounds diluted in the respective assay buffer was added to each well. ATPases were diluted to 1 μM in the respective buffers containing 2× EnzChek Phosphate assay coupling reagents of 400 μM MESG and 2 U of PNP, then 25 μL was added to each well. Plates were mixed at 1000 rpm for 30 minutes at RT while being protected from light. The reaction was initiated by adding 2.5 μL of 20 mM MgATP or water followed by mixing at 1200 rpm for 30 seconds at RT. Plates were measured at 360 nm using a CLARIOstar plate reader (BMG LABTECH) for 20 minutes at 37 °C. ATPase activity was calculated as the amount of phosphate released over a 5-minute interval under linear initial velocity conditions. The remaining ATPase activity was calculated by normalizing compound-treated activity values to the DMSO control. IC50 was calculated by fitting normalized values to a sigmoidal dose-response curve with Hill slope = −1 using Graph Pad Prism 10.0.\n(§2) To identify VPS4i, we developed enzyme- and cell-based VPS4 functional assays to serve as VPS4i-screening platforms. For the enzyme-based assay, we used the colorimetric EnzChek Phosphate assay that detects free phosphate with the advantage of continuous measurement of ATP hydrolysis over time. […] Due to the high sequence and structural similarity of AAA-ATPases, we also established a VCP ATPase assay to evaluate hit selectivity. […] For the cell-based assay, our approach was based on how VPS4 inhibition causes the accumulation of ESCRT-III ([Babst et al, 1998]; [Katoh et al, 2003]). We used an N-terminal GFP-tagged CHMP4B reporter system because it is the most abundant ESCRT-III subunit ([Katoh et al, 2004]; [Teis et al, 2008]). Our aim was to test compounds under short-term serum and amino acid starvation to stimulate ESCRT activity for easier detection of inhibitors ([Takahashi et al, 2018], [2019]). […] Overall, we established 2 systems for VPS4i screening, a VPS4B ATPase activity assay and a GFP-CHMP4B accumulation cell-based assay."}, "recombinant human VCP [2]": {"target": "T2, recombinant human VCP", "T2 construct": "His (N); host or cells: Escherichia coli BL21(DE3)", "T2 sequence (P46462 2-806 limits assumed)": "as above", "assay": "VCP ATPase activity, EnzChek Phosphate assay", "assay_type": "biochemical", "details": "0.5 μM enzyme", "experimental": "as §1, §2"}, "Acute dose MTD study": {"assay": "Acute dose MTD study", "details": "both sexes, C57BL/6J, mouse, in vivo, ip, fixed daily doses 5, 10, 15, 20 mg/kg, B6 mice; read-out: acute dose MTD (tolerated dose)", "experimental": "All animal studies were performed in accordance with the guidelines of the Institutional Animal Care and Use Committee at the Penn State College of Medicine (IACUC # PRAMS201145989). To determine the maximum tolerated dose (MTD) of 4-107, escalating and acute dose studies were performed. The escalating MTD study used an intra-animal design where each mouse received daily doses of 4-107 that increased 50% each day from a starting dose of 5 mg/kg. Six female C57BL/6J (B6) (The Jackson Laboratory; 000664) were administered 4-107 either orally via oral gavage or via intraperitoneal injection with 3 mice per group. The acute MTD study had groups of mice receive daily consistent doses of 4-107 i.p. Here, B6 mice were administered 4-107 at either 5 (n = 4; 2 males [M], 2 females [F]), 10 (n = 4; 2 M, 2 F), 15 (n = 5; all M), or 20 mg/kg (n = 5; all M). In both studies, 4-107 dissolved in DMSO was mixed into 30% propylene glycol, 5% Tween 80, and 65% of 5% dextrose in water (PTD [vehicle]) with a final DMSO concentration of ≤ 3%. […] BCS was determined by posture and prominence of skeletal features upon visual inspection and palpation, where BCS < 2 indicated a hunched posture and emaciation. […] The MTD was determined as the highest dose of 4-107 administered without mice reaching the toxicity endpoints."}}, "data": [{"smiles": "COc1cccc2c(NCc3ccccc3)nc(NCc3ccccc3)nc12", "note": "[Compound 4-107, N^2,N^4-dibenzyl-8-methoxyquinazoline-2,4-diamine]", "values": [{"measurement": "VCP ATPase (% DMSO)", "setting": "recombinant human VCP [1]; remaining ATPase activity, screened at 5 μM, mean ± SD, Table 2", "value": "68.48 ± 2.85", "unit": "% DMSO"}, {"measurement": "VCP ATPase (% DMSO)", "setting": "recombinant human VCP [1]; screened at 5 µM, mean ± S.D., Supplemental Table 2", "value": "68.48 ± 2.02", "unit": "% DMSO"}, {"measurement": "IC50", "setting": "recombinant human VCP [2]", "value": "8.6 ± 3.9", "unit": "µM"}, {"measurement": "MTD", "setting": "Acute dose MTD study", "value": 5, "unit": "mg/kg"}]}]}
